Measurements published in article PMC11648822, “Lactam Truncation Yields a Dihydroquinazolinone Scaffold with Potent Antimalarial Activity that Targets PfATP4” (Chemmedchem, 2024).
In brackets after ≈: the same amount, converted by molar mass. Marks after values point to notes of the source that are not given here.

Tests used:
eLogD shake-flask method = type: physicochemical
Excerpt: (§1) Human liver microsome stability, rat hepatocyte stability, aqueous solubility and eLogD are platform assays conducted by TCG Lifesciences and undertaken using previously described protocols.[10]

[1] = Human liver microsome stability; type: in vitro ADME; conditions: human liver microsomes; for microsomal CLint: read-out: HLM CLint
Excerpt: as §1

[2] = Aqueous solubility (pH 7.4); type: physicochemical
Excerpt: as §1

Rat hepatocyte stability = type: in vitro ADME; conditions: rat hepatocytes; for hepatocyte CLint: read-out: Rat Hep CLint
Excerpt: as §1

[3] = system: P. falciparum (Pf) 3D7 parasites; test: P. falciparum LDH viability assay; type: cell-based; conditions: Plasmodium falciparum, 3D7, 72 h, LDH activity at 72 h; mean and SD of 3 independent experiments
Excerpt: This assay is a platform assay conducted at the Walter and Eliza Hall Institute and uses a protocol previously decsribed.[30, 31]

[4] = Human HepG2 cytotoxicity assay (Cell Titre Glo); type: cell-based; conditions: HepG2 cells, growth inhibition at 48 h, 4 replicate experiments, read-out: HepG2 CC50 (SD)
Excerpt: This assay uses Cell TitreGlo as a metabolic maker for human HepG2 cell growth and uses a protocol previously described.[32]

[5] = aqueous medium (pH 7.4; buffer not named), pH 7.4, aqueous buffer
[6] = aqueous medium at pH 7.4 (buffer not named), pH 7.4, aqueous buffer
[7] = aqueous medium at pH 7.4, pH 7.4, aqueous buffer

Compound	eLogD (eLogD shake-flask method)	EC50 [3] [µM]	CC50 at 48 h [4] [µM]	microsomal CLint [1] [µL/min/mg]	hepatocyte CLint (Rat hepatocyte stability) [µL/min/1e6 cells]	also measured
7‐Chloro‐N‐(5‐chloropyridin‐3‐yl)‐3‐methyl‐2‐(3‐(4‐methylpiperazin‐1‐yl)‐3‐oxopropyl)‐4‐oxo‐1,2,3,4‐tetrahydroquinazoline‐2‐carboxamide [Compound 23]	2.8^[d]	–	–	–	–	HLM CLint [1]: 155 µL/min/mg; solubility ([2]; pH 7.4): 9.6 µM; Rat Hep CLint (Rat hepatocyte stability): 16 μL/min/10^6 cells
7‐Chloro‐N‐(5‐chloropyridin‐3‐yl)‐3‐methyl‐2‐(3‐morpholino‐3‐oxopropyl)‐4‐oxo‐1,2,3,4‐tetrahydroquinazoline‐2‐carboxamide [Compound 21]	–	–	–	–	–	HLM CLint [1]: 95 µL/min/mg; solubility ([2]; pH 7.4): 41 µM; Rat Hep CLint (Rat hepatocyte stability): 23 μL/min/10^6 cells
7‐Chloro‐N‐(5‐chloropyridin‐3‐yl)‐3‐methyl‐4‐oxo‐2‐(3‐oxo‐3‐(piperazin‐1‐yl)propyl)‐1,2,3,4‐tetrahydroquinazoline‐2‐carboxamide [Compound 22]	1.7^[d]	–	–	–	–	HLM CLint [1]: 94 µL/min/mg; solubility ([2]; pH 7.4): 178 µM; Rat Hep CLint (Rat hepatocyte stability): 7.7 μL/min/10^6 cells
CN1C(=O)c2ccc(Cl)cc2N(C)C1(C)C(=O)Nc1cccc(Cl)c1 (centres unmarked) [Compound 12, 7‐Chloro‐N‐(3‐chlorophenyl)‐1,2,3‐trimethyl‐4‐oxo‐1,2,3,4‐tetrahydroquinazoline‐2‐carboxamide]	3.9^[d]	0.115	> 40	122	124	solubility [2, 5]: 2.6 µM (≈ 0.983 µg/mL); solubility [2, 6]: < 5.2 µM
CCN1c2cc(Cl)ccc2C(=O)N(C)C1(C)C(=O)Nc1cccc(Cl)c1 (centres unmarked) [Compound 13, 7‐Chloro‐N‐(3‐chlorophenyl)‐1‐ethyl‐2,3‐dimethyl‐4‐oxo‐1,2,3,4‐tetrahydroquinazoline‐2‐carboxamide]	–	0.053	> 40	–	–	–
CN1C(=O)c2ccc(Cl)cc2N(C)C1(C)C(=O)Nc1cncc(Cl)c1 (centres unmarked) [Compound 15, 7‐Chloro‐N‐(5‐chloropyridin‐3‐yl)‐1,2,3‐trimethyl‐4‐oxo‐1,2,3,4‐tetrahydroquinazoline‐2‐carboxamide]	–	0.047	> 40	–	–	–
CC1(C(=O)Nc2cncc(Cl)c2)Nc2cc(Cl)ccc2C(=O)N1C1CC1 (centres unmarked) [Compound 16, 7‐Chloro‐N‐(5‐chloropyridin‐3‐yl)‐3‐cyclopropyl‐2‐methyl‐4‐oxo‐1,2,3,4‐tetrahydroquinazoline‐2‐carboxamide]	3.3^[d]	0.027	> 40	172	33	solubility [2, 5]: 7 µM (≈ 2.74 µg/mL)
CN1c2cc(Cl)ccc2C(=O)N(C2CC2)C1(C)C(=O)Nc1cncc(Cl)c1 (centres unmarked) [Compound 17, 7‐Chloro‐N‐(5‐chloropyridin‐3‐yl)‐3‐cyclopropyl‐1,2‐dimethyl‐4‐oxo‐1,2,3,4‐tetrahydroquinazoline‐2‐carboxamide]	3.2^[d]	0.023	> 40	267	47	solubility [2, 5]: 28 µM (≈ 11.3 µg/mL)
CN1C(=O)c2ccc(Cl)cc2N2CCCC12C(=O)Nc1cccc(Cl)c1 (centres unmarked) [Compound 18, 8‐Chloro‐N‐(3‐chlorophenyl)‐4‐methyl‐5‐oxo‐2,3,4,5‐tetrahydropyrrolo[1,2‐a]quinazoline‐3a(1H)‐carboxamide]	–	0.03	> 40	–	–	–
CN1C(=O)c2ccc(Cl)cc2NC1C(=O)Nc1cccc(Cl)c1 (centres unmarked) [Compound 19, 7‐Chloro‐N‐(3‐chlorophenyl)‐3‐methyl‐4‐oxo‐1,2,3,4‐tetrahydroquinazoline‐2‐carboxamide]	–	0.08	> 40	–	–	–
CN1C(=O)c2ccc3cccnc3c2NC1(C)C(=O)Nc1cncc(Cl)c1 (centres unmarked) [Compound 25, N‐(5‐Chloropyridin‐3‐yl)‐2,3‐dimethyl‐4‐oxo‐1,2,3,4‐tetrahydropyrido[3,2‐h]quinazoline‐2‐carboxamide]	–	0.22	> 40	–	–	–
CN1C(=O)c2ccc3ncccc3c2NC1(C)C(=O)Nc1cncc(Cl)c1 (centres unmarked) [Compound 26, N‐(5‐Chloropyridin‐3‐yl)‐2,3‐dimethyl‐4‐oxo‐1,2,3,4‐tetrahydropyrido[2,3‐h]quinazoline‐2‐carboxamide]	–	0.09	> 40	–	–	–
CC1(C(=O)Nc2cncc(Cl)c2)Nc2cc(Cl)ccc2-c2nccn21 (centres unmarked) [Compound 27, 8‐Chloro‐N‐(5‐chloropyridin‐3‐yl)‐5‐methyl‐5,6‐dihydroimidazo[1,2‐c]quinazoline‐5‐carboxamide]	–	0.054	> 40	110	59	logD (eLogD shake-flask method): 2.7; solubility [2, 6]: 84 µM (≈ 31.4 µg/mL)
CC1(C(=O)Nc2cncc(Cl)c2)Nc2cc(Cl)ccc2C2=NCCN21 (centres unmarked) [Compound 28, 8‐Chloro‐N‐(5‐chloropyridin‐3‐yl)‐5‐methyl‐2,3,5,6‐tetrahydroimidazo[1,2‐c]quinazoline‐5‐carboxamide]	–	–	–	37	8.8	logD (eLogD shake-flask method): 2.5; solubility [2, 6]: > 200 µM
CN1C(=O)c2ccc(-c3cccnc3)cc2NC1(C)C(=O)Nc1cncc(Cl)c1 (centres unmarked) [Compound 29, N‐(5‐Chloropyridin‐3‐yl)‐2,3‐dimethyl‐4‐oxo‐7‐(pyridin‐3‐yl)‐1,2,3,4‐tetrahydroquinazoline‐2‐carboxamide]	–	0.148	> 40	–	–	–
COc1ccc(-c2ccc3c(c2)NC(C)(C(=O)Nc2cncc(Cl)c2)N(C)C3=O)cn1 (centres unmarked) [Compound 30, N‐(5‐Chloropyridin‐3‐yl)‐7‐(6‐methoxypyridin‐3‐yl)‐2,3‐dimethyl‐4‐oxo‐1,2,3,4‐tetrahydroquinazoline‐2‐carboxamide]	–	0.143	> 40	–	–	–
CN1C(=O)c2ccc(-c3ccn(C)n3)cc2NC1(C)C(=O)Nc1cncc(Cl)c1 (centres unmarked) [Compound 31, N‐(5‐Chloropyridin‐3‐yl)‐2,3‐dimethyl‐7‐(1‐methyl‐1H‐pyrazol‐3‐yl)‐4‐oxo‐1,2,3,4‐tetrahydroquinazoline‐2‐carboxamide]	–	0.808	> 40	–	–	–
CN1C(=O)c2ccc(-c3cnn(C)c3)cc2NC1(C)C(=O)Nc1cncc(Cl)c1 (centres unmarked) [Compound 32, N‐(5‐Chloropyridin‐3‐yl)‐2,3‐dimethyl‐7‐(1‐methyl‐1H‐pyrazol‐4‐yl)‐4‐oxo‐1,2,3,4‐tetrahydroquinazoline‐2‐carboxamide]	2.9^[d]	0.198	> 40	34	5	solubility [2, 7]: 7 µM (≈ 2.88 µg/mL)
COc1ccc2c(c1)NC(C)(C(=O)Nc1cncc(Cl)c1)N(C)C2=O (centres unmarked) [Compound 34, N‐(5‐Chloropyridin‐3‐yl)‐7‐methoxy‐2,3‐dimethyl‐4‐oxo‐1,2,3,4‐tetrahydroquinazoline‐2‐carboxamide]	–	0.074	–	35	16	logD (eLogD shake-flask method): 2.7; solubility [2, 7]: 13.5 µM (≈ 4.87 µg/mL)
COc1cnc2c(c1)NC(C)(C(=O)Nc1cncc(Cl)c1)N(C)C2=O (centres unmarked) [Compound 35, N‐(5‐Chloropyridin‐3‐yl)‐7‐methoxy‐2,3‐dimethyl‐4‐oxo‐1,2,3,4‐tetrahydropyrido[3,2‐d]pyrimidine‐2‐carboxamide]	–	0.458	> 40	–	–	–
